From patent US10933032B2, “Methods for the treatment of cancer using coenzyme Q10 combination therapies” (Berg LLC, priority 2013, dated 2021)

Experiments:
cells = experiment: Relative timing of CoQ10 and chemotherapeutic agents, cell killing in vitro (Example 7); type: cell-based; settings: Example 7, written in present tense
Description: Using the methods in Example 6, cells are tested to determine if the relative timing of treatment of cells with CoQ10 and chemotherapeutic agents has an effect on cell killing, e.g., by promotion of apoptosis, induction of tumor lysis, inhibition of cell proliferation.
Briefly, cells are cultured as in Example 6. Cells are treated with CoQ10 and chemotherapeutic agents, either alone or in combination, or with appropriate vehicle controls. For the cells treated with both CoQ10 and chemotherapeutic agents, the cells are contacted with the CoQ10 and chemotherapeutic agents in various sequences. Various concentrations of CoQ10 and chemotherapeutic agents are used. Various treatment times are also used.
After treatment with CoQ10 and chemotherapy as indicated, cells are harvested and assayed for viability and apoptosis using the methods provided above. […] The metabolic switch effectuated by CoQ10 in cancer cells is associated with induction of a novel integrated signaling cross-talk involving TP53, Bcl-2/Bax and VEGF that results in the recapitulation of apoptotic pathways.

[1] = system: MIAPaCa-2, SKOV-3, PC-3, HT-29, MCF7, MDA-MB231, SKBR-3, A549, Hep3B cancer cells; experiment: In vitro CoQ10 monotherapy of various cancer cell types; type: cell-based; settings: 100 μM CoQ10 for 48-72 hours; FIG. 16
Description: Cells were treated with 100 μM CoQ10 for 48-72 hours.

[2] = system: triple-negative breast cancer (TNBC) xenografts; experiment: Triple-negative breast cancer (TNBC) xenograft, survival; type: in vivo, Mice; settings: FIG. 21
[3] = system: MIAPaCa2 pancreatic cancer cells; experiment: Proliferation assay (CFSE, flow cytometry); type: cell-based, human; settings: MIAPaca-2; CoQ10 with gemcitabine; FIG. 13
Description: FIG. 13 is a graph showing results from proliferation assay in which MIAPaCa2 pancreatic cancer cells were treated with gemcitabine alone or in combination with CoQ10 prior to assessment of proliferation via flow cytometric analysis using the cell tracer dye CFSE which stains live cells. Values are normalized to the number of cells treated with neither CoQ10 nor the chemotherapeutic agent.
Without being bound by mechanism, it is proposed that CoQ10 effectuates a metabolic switch from glycolysis towards enhanced mitochondrial oxidative phosphorylation resulting in the recapitulation of apoptosis in cancer. The effects of CoQ10 were investigated to determine if pretreatment with CoQ10 results in mitochondrial priming, thereby augmenting the cytotoxic effect of standard of care chemotherapeutic agents. MIAPaCa-2 human pancreatic cancer cells were either (a) pretreated with CoQ10 prior to treatment with gemcitabine or (b) co-treated with CoQ10 and gemcitabine.

Structure (SMILES): COC1=C(OC)C(=O)C(C/C=C(\C)CC/C=C(\C)CC/C=C(\C)CC/C=C(\C)CC/C=C(\C)CC/C=C(\C)CC/C=C(\C)CC/C=C(\C)CC/C=C(\C)CCC=C(C)C)=C(C)C1=O [CoQ10, Coenzyme Q10]
- Cell killing, pretreatment with CoQ10, discontinuation, then chemotherapy (cells): also effective in cell killing
- Cell killing, pretreatment with CoQ10 followed by concurrent CoQ10 and chemotherapy (cells): effective in cell killing
- Cell killing, pretreatment with CoQ10 prior to chemotherapy (cells): more effective in cell killing than co-treatment with CoQ10 and chemotherapy or treatment with CoQ10 after chemotherapy
- Cell death in cancer cells [1]: increased cell death
- Survival, CoQ10 in combination with the TAC regimen ([2]; 75 mg/kg CoQ10, TAC: 5 mg/kg docetaxel, 1 mg/mg doxorubicin, 35 mg/kg cyclophosphamide every three weeks for six cycles): significantly improved survival
- Survival, CoQ10 alone ([2]; 75 mg/kg body weight CoQ10 (BPM 31510)): significantly improved survival
- Proliferation vs gemcitabine alone [3]: decreased proliferation
